Test results as given in patent US4835152A, “1-(4-Aminophenyl)-4-methyl-7,8-methylenedioxy-3,4-dihydro-5H-2,3-b enzodiazepine and acid addition salts thereof same” (Biogal Gyogyszergyar, priority 1986, dated 1989).

Tests used:
[1] = Examination of stereotypy in rats (method of Costall and Naylor); type: in vivo; set-up: Stereotypy, average score: scale not given here
From the text: 3. Examination of stereotypy in rats
For the measurement of stereotypy the method of B. Costall and R. I. Naylor [Eur. J. Pharmacol. 18, 95 (1972)] was used. The score values in Table 4 are average score values obtained at the time of reading.

[2] = tested on: haloperidol-induced decrease in SMA; test: Measurement of the haloperidol-antagonistic effect in mice (spontaneous motor activity, SMA); type: in vivo, male CFLP mice; conditions: haloperidol alone, 0.5 mg/kg i.p., relative to controls
Experimental: 2. Measurement of the haloperidol-antagonistic effect in mice
Male CFLP mice weighing 20 to 22 g were treated intraperitoneally with a dose of 0.5 mg/kg of 4-[4-(4-chlorophenyl)-4-hydroxy-1-piperidinyl]-1-(4-fluorophenyl)-1-butanone (haloperidol) and the spontaneous motor activity (SMA) was measured, in relation to the data obtained in the controls, by a capacitance-sensitive motimeter. Another group of the test animals was treated also with a dose of 30 mg/kg of the compound of Example 1, 15 minutes after the administration of haloperidol.

| SMILES | Stereotypy, average score ([1]; 5 mg/kg i.p., 30 min) | Stereotypy, average score ([1]; 5 mg/kg i.p., 60 min) | Stereotypy, average score ([1]; 5 mg/kg i.p., 120 min) | Stereotypy, average score ([1]; 5 mg/kg i.p., 180 min) | Stereotypy, average score ([1]; 5 mg/kg i.p., 240 min) | Stereotypy, average score ([1]; 10 mg/kg i.p., 30 min) | Stereotypy, average score ([1]; 10 mg/kg i.p., 60 min) | Stereotypy, average score ([1]; 10 mg/kg i.p., 120 min) | Stereotypy, average score ([1]; 10 mg/kg i.p., 180 min) | Stereotypy, average score ([1]; 10 mg/kg i.p., 240 min) | Stereotypy, average score ([1]; 20 mg/kg i.p., 30 min) | Stereotypy, average score ([1]; 20 mg/kg i.p., 60 min) | Stereotypy, average score ([1]; 20 mg/kg i.p., 120 min) | Stereotypy, average score ([1]; 20 mg/kg i.p., 180 min) | Stereotypy, average score ([1]; 20 mg/kg i.p., 240 min) | Stereotypy (in words) ([1]; rats) | Decrease in SMA [2] |
| --- | --- | --- | --- | --- | --- | --- | --- | --- | --- | --- | --- | --- | --- | --- | --- | --- | --- |
| CC(C)C[C@H]1C(=O)N2CCC[C@H]2[C@]2(O)O[C@](NC(=O)[C@@H]3C=C4c5cccc6[nH]c(Br)c(c56)C[C@H]4N(C)C3)(C(C)C)C(=O)N12 [Bromocriptine, reference compound] | 0.2 | 0.6 | 0.8 | 1.1 | 0.4 | 0.5 | 1.0 | 1.8 | 1.9 | 1.5 | 0.6 | 1.2 | 2.2 | 2.4 | 1.8 | causes stereotypy |  |
| O=C(CCCN1CCC(O)(c2ccc(Cl)cc2)CC1)c1ccc(F)cc1 [Haloperidol, 4-[4-(4-chlorophenyl)-4-hydroxy-1-piperidinyl]-1-(4-fluorophenyl)-1-butanone, reference compound] |  |  |  |  |  |  |  |  |  |  |  |  |  |  |  |  | 62.6% |
